Measurements taken from PMC3112094, “Pro-apoptotic activity of α-bisabolol in preclinical models of primary human acute leukemia cells” (Journal of Translational Medicine, 2011).

Legend:
[1] = system: T lymphocytes; assay: Cytotoxicity in normal peripheral blood cells, TruCOUNT flow cytometry; format: cell-based, human
Procedure: Viable peripheral blood leukocytes and bone marrow cells from - 4 - control donors were treated and used as specified above for leukemic cells.
(§1) Cells derived from patients or normal donors were exposed for 24 hours to 20, 40, 80, and 160 μM α-bisabolol dissolved in ethanol (1:8 in order to minimize drug volumes), and when appropriate to 3 μM imatinib mesylate (Novartis, Basel, CH), representative of the in vivo active concentration. All cytotoxicity tests were performed in triplicate.
The absolute counts of normal leukocytes sub-populations were measured with TruCOUNT tubes (Becton Dickinson, San Jose, CA) by polychromatic flow cytometry according to the manufacturer's instructions with minor modifications. Peripheral blood and bone marrow cells were cultured with α-bisabolol for 24, 48, 72, 96 and 120 hours. At the end of the culture, 200 μL of sample, a mixture of antibodies (CD45 APC-H7, CD3 PE-Cy7, CD19 PE, CD14 APC for peripheral blood and CD45 APC-H7, CD34 PE, CD33 PE-Cy7 for bone marrow) and 7-amino-actinomycin D (all reagents from Becton Dickinson) for dead cells exclusion were added to the TruCOUNT tubes. After a 15-minute incubation at room temperature, 1 mL lysing reagent (Biosource, Nivelles, BE) was added for 10 minutes. A total of 40,000 beads were acquired on a FACSCanto cytometer (Becton Dickinson). […]

[2] = Solubilization of α-bisabolol in the culture medium by RP-HPLC; format: physicochemical; settings: after 24 hours
Procedure: α-bisabolol at a purity ≥95% (GC) was purchased from Sigma-Aldrich, St. Louis, MO. The dose-dependent solubilization of α-bisabolol in the culture medium over 24 hours was determined by a reverse-phase high performance liquid chromatography (RP-HPLC) method, developed in the Department of Food Science of Bologna University, Cesena office, Italy. All measurements were performed in duplicate. The α-bisabolol concentrations indicated throughout the article represent the calculated soluble fraction in the assay.

[3] = system: normal lymphocytes; assay: Mitochondrial membrane potential, JC-1 staining; format: cell-based, human; settings: similar α-bisabolol concentration (40 μM)
Procedure: (§2) Cells resuspended in CM at 1 × 10^6/mL were treated with 40 μM α-bisabolol for 3 or 5 hours at 37°C. They were then washed with pre-warmed CM, 4 μM of the potential sensitive dye JC-1 (5,5',6,6'-tetra-chloro-1,1',3,3'-tetra-ethyl-benz-imidazolyl-carbocyanine iodide, Molecular Probes, Eugene, OR) was added, and they were then placed back into the incubator. After 30 minutes they were washed twice with pre-warmed PBS. An aliquot of each sample was spotted onto a slide, mounted with a coverslip and immediately recorded by an Axio Observer inverted microscope (Zeiss, Gottingen, DE). Visualization of JC-1 monomers (green fluorescence) and JC-1 aggregates (red fluorescence) was done using filter sets for fluorescein and rhodamine dyes (emission 488 and 550 nm respectively). Image captures of random fields using fixed imaging parameters were performed, and previously unviewed areas of cells were captured to avoid photobleaching. Image analysis was done using Axiovision 3 software. The other aliquot of each sample was resuspended in PBS and analyzed using a FACSCalibur cytometer (Becton Dickinson) equipped with a 488 nm argon laser. The emission of JC-1 monomers was detected in Fl-1 using a 530/30 nm bandpass filter, and JC-1 aggregates were detected in Fl-2 using a 585/42 nm bandpass filter. FlowJo 8.8.2 software (Tree Star, Ashland, OR) was used to analyze data.

[4] = system: leukemic blasts; assay: Mitochondrial membrane potential, JC-1 staining; format: cell-based, human; settings: 40 μM α-bisabolol, 3 and 5 hours, JC-1, 6 leukemias tested
Procedure: as §2

[5] = system: primary acute leukemia cells; assay: cells; format: cell-based, human; settings: for IC50: Homo sapiens, 24 h
Procedure: as §1
A lactate dehydrogenase (LDH) release assay was conducted as follows. Thawed cells were resuspended in RPMI-1640 (Lonza, Basel, CH) supplemented with 10% heat-inactivated fetal bovine serum (FBS, Lonza), 50 U/mL penicillin and 50 μg/mL streptomycin (complete medium, CM), seeded at a density of 2 × 10^6 cell/mL and incubated at 37°C in 5% CO2. After 24 hours, the cells were treated with α-bisabolol (or ethanol as a vehicle control) as specified above. Cytotoxicity was determined using the Cytotoxicity Detection Kit^PLUS according to the manufacturer's recommendations (Roche, Mannheim, DE). LDH leakage was measured as the ratio of treatment-induced LDH to spontaneous LDH release. α-bisabolol and imatinib mesylate data were reported as the percent cytotoxicity for treated compared to untreated cells and plotted as dose-response curves over 24 hours. The half maximal inhibitory concentration (IC50) was determined when appropriate.
To generate a classification based on α-bisabolol sensitivity, samples were grouped using the complete linkage hierarchical clustering algorithm available in the MultiExperiment Viewer (MeV, version 4.3 - http://www.tm4.org/mev/). A heat map for sensitivity was derived using the percentage data for mortality after adding α-bisabolol with respect to spontaneous mortality at the same time.
Student's t-test for means, chi-squared tests, Mann-Whitney U test and Kruskall-Wallis analysis of variance by ranks were considered significant for p values < 0.05.

## CC(C)=CCC[C@](C)(O)[C@@H]1CC=C(C)CC1 [α-bisabolol]
[1]; Homo sapiens, T-lymphocyte, 24 h, normal peripheral blood T lymphocytes
  IC50: 59 ± 7 µM
[1]; T lymphocytes, 40 μM α-bisabolol over 120 hours
  sensitivity to α-bisabolol: only marginally sensitive
[2]; 0-250 μM added, double series of 7 concentrations
  incremental ratio of measured to added concentrations: 0.65
[2]; RP-HPLC
  fraction of the α-bisabolol added measured in the culture medium: around 65%
[3]
  mitochondrial transmembrane potential (ΔΨm): no mitochondrial damage
[4]
  mitochondrial transmembrane potential (ΔΨm): dissipates the mitochondrial transmembrane potential
[5]; 65 μM α-bisabolol for 24 hours
  responsiveness of all leukemia cases: eventually responsive
[5]; cluster 1, n 8, 24-hour
  IC50: 14 ± 5 µM
[5]; cluster 2, n 19, 24-hour
  IC50: 45 ± 7 µM
[5]; cluster 3, 15 acute leukemia samples, 24-hour
  IC50: 65 ± 5 µM
[5]; cluster 3, 17: 15 acute leukemias plus CD34^+ and CD33^+my samples, 24-hour
  IC50: 64 ± 5 µM
